From patent EP0199524B1, “Platinum tramine antitumor agents” (ENGELHARD CORPORATION, priority 1985, dated 1986)
Several values for one entry are separate records, joined by “and”; a condition that tells them apart may be missing. Identical values can stand only once.

How the values were obtained:
S180 ascites = experiment: Screening for anti-tumor activity against S180 ascites (S180a) in mice; assay type: in vivo, female CFW Swiss mice; conditions: for 30-Day Survivors / %ILS: medium H2O; for 30-Day Survivors: survivors/mice in set; for %ILS: injected day 1, S180a in mice, upper limit 100%
Description: The compounds were evaluated for anti-tumor activity against S180 ascites in female CFW Swiss mice by the following procedure: CFW mice, averaging 20g, are immediately inspected and placed in newly prepared cages. On day zero the mice are inoculated with 0.2 ml. of a freshly prepared saline suspension (0.15 M NaCl) containing 1 x 10⁷ tumor cells/ml, or a total of 2 x 10⁶ cells. This inoculum is freshly prepared using "transfer" mice which have been injected with tumor cells the previous week. This inoculum is the end-product of a series of steps which involves (1) the removal of the cells from the peritoneal cavity of the sacrificed transfer mouse, (2) alternate centrifugation-washing (2-3 times with cold saline) to remove occasional blood and other undesirable components, and finally (3) dilution (1:3) of the packed cell volume with saline (the final centrifugation being carried out at 1,000 rpm for 2 min.). A cell count is made on a 2,000-fold dilution of this 1:3 suspension by means of a Coulter Counter. A final dilution to 1 x 10⁷ cells/ml. is made based on the averaged count. On day 1, solutions of the test compounds are prepared and the mice injected, with each mouse of a set of six being injected with the same test compound at the same dose level.
ILS values above 50% represent significant activity; those above 75% represent excellent activity.

[1] = literature statement on charged platinum species; cited from earlier work
[2] = 8 mg/kg in saline, positive control run with each experiment, S180a in mice

Cc1cc[n+]([Pt-2]([NH3+])([NH3+])[Cl])cc1.[Cl-] (stereo not drawn) [Example 5, Cis-chlorodiammine-4-methylpyridineplatinum(II)chloride]
30-Day Survivors (S180 ascites; Dose 10 mg/kg, S180a in mice): 0/6
%ILS (S180 ascites; Dose 10 mg/kg): 5%
30-Day Survivors (S180 ascites; Dose 20 mg/kg, S180a in mice): 1/6
%ILS (S180 ascites; Dose 20 mg/kg): 27%
30-Day Survivors (S180 ascites; Dose 40 mg/kg, S180a in mice): 2/6
%ILS (S180 ascites; Dose 40 mg/kg): 83%
30-Day Survivors (S180 ascites; Dose 80 mg/kg, S180a in mice): 1/6
%ILS (S180 ascites; Dose 80 mg/kg): 66%
30-Day Survivors (S180 ascites; Dose 160 mg/kg, S180a in mice): 0/6
%ILS (S180 ascites; Dose 160 mg/kg): -77%
30-Day Survivors (S180 ascites; Dose 320 mg/kg, S180a in mice): 0/6
%ILS (S180 ascites; Dose 320 mg/kg): -91%

[Cl-].[NH3+][Pt-2]([NH3+])([Cl])[n+]1ccc(Cl)cc1 (stereo not drawn) [Example 8, Cis-chlorodiammine-4-chloropyridineplatinum(II) chloride]
30-Day Survivors (S180 ascites; Dose 10 mg/kg, S180a in mice): 0/6
%ILS (S180 ascites; Dose 10 mg/kg): 22%
30-Day Survivors (S180 ascites; Dose 20 mg/kg, S180a in mice): 2/6
%ILS (S180 ascites; Dose 20 mg/kg): 68%
30-Day Survivors (S180 ascites; Dose 40 mg/kg, S180a in mice): 4/6
%ILS (S180 ascites; Dose 40 mg/kg): 77%
30-Day Survivors (S180 ascites; Dose 80 mg/kg, S180a in mice): 4/6
%ILS (S180 ascites; Dose 80 mg/kg): 36%
30-Day Survivors (S180 ascites; Dose 160 mg/kg, S180a in mice): 0/6
%ILS (S180 ascites; Dose 160 mg/kg): -77%
30-Day Survivors (S180 ascites; Dose 320 mg/kg, S180a in mice): 0/6
%ILS (S180 ascites; Dose 320 mg/kg): -94%

N.N.[Cl][Pt][Cl] [cis-[Pt(NH3)2Cl2], cis-diamminedichloroplatinum(II), reference compound]
Positive Control 30-Day Survivors (S180 ascites; [2]): 2/6 and 4/6 and 1/6 and 3/6 and 2/7
Positive Control %ILS (S180 ascites; [2]): 79% and 66% and 80% and 94% and 73% and 72% and 98%
optimum activity (dose) (S180 ascites; under identical screening): 9 to 10 mg/kg

N.N.N.N.[Cl][Pt][Cl] [[Pt(NH₃)₄]Cl₂]
antitumor activity [1]: completely inactive

Cc1cccc(O)[n+]1[Pt-2]([NH3+])([NH3+])[Cl].[Cl-] (stereo not drawn) [Example 3, Cis-Chlorodiammine-6-methyl-2-hydroxypyridineplatinum(II) Chloride]
30-Day Survivors (S180 ascites; Dose 10 mg/kg, S180a in mice): 0/6
%ILS (S180 ascites; Dose 10 mg/kg): -9%
30-Day Survivors (S180 ascites; Dose 20 mg/kg, S180a in mice): 0/6
%ILS (S180 ascites; Dose 20 mg/kg): -6%
30-Day Survivors (S180 ascites; Dose 40 mg/kg, S180a in mice): 0/6
%ILS (S180 ascites; Dose 40 mg/kg): 12%
30-Day Survivors (S180 ascites; Dose 80 mg/kg, S180a in mice): 0/6
%ILS (S180 ascites; Dose 80 mg/kg): 15%
30-Day Survivors (S180 ascites; Dose 160 mg/kg, S180a in mice): 5/6
%ILS (S180 ascites; Dose 160 mg/kg): 93%
30-Day Survivors (S180 ascites; Dose 320 mg/kg, S180a in mice): 3/6
%ILS (S180 ascites; Dose 320 mg/kg): 93%

N.N.[Cl-].[Cl][Pt+].c1ccncc1 [Example 18, Trans-Chlorodiamminepyridineplatinum(II) Chloride]
30-Day Survivors (S180 ascites; Dose 5 mg/kg, S180a in mice): 0/6
%ILS (S180 ascites; Dose 5 mg/kg, 5 mg/kg): 2%
30-Day Survivors (S180 ascites; Dose 10 mg/kg, S180a in mice): 0/6
%ILS (S180 ascites; Dose 10 mg/kg, 10 mg/kg): 7%
30-Day Survivors (S180 ascites; Dose 20 mg/kg, S180a in mice): 0/6
%ILS (S180 ascites; Dose 20 mg/kg, 20 mg/kg): 6%
30-Day Survivors (S180 ascites; Dose 40 mg/kg, S180a in mice): 0/6
%ILS (S180 ascites; Dose 40 mg/kg, 40 mg/kg): 15%
30-Day Survivors (S180 ascites; Dose 80 mg/kg, S180a in mice): 0/6
%ILS (S180 ascites; Dose 80 mg/kg, 80 mg/kg): 26%
30-Day Survivors (S180 ascites; Dose 160 mg/kg, S180a in mice): 0/6
%ILS (S180 ascites; Dose 160 mg/kg, 160 mg/kg): -70%

N.N.[Cl-].[Cl][Pt+].c1ccncc1 [Example 1, Cis-Chlorodiamminepyridineplatinum(II) Chloride]
30-Day Survivors (S180 ascites; Dose 5 mg/kg, S180a in mice): 0/6
%ILS (S180 ascites; Dose 5 mg/kg, 5 mg/kg): 19%
30-Day Survivors (S180 ascites; Dose 10 mg/kg, S180a in mice): 0/6
30-Day Survivors (S180 ascites; Dose 20 mg/kg, S180a in mice): 1/6 and 0/6
%ILS (S180 ascites; Dose 20 mg/kg, 20 mg/kg): 73% and 70%
30-Day Survivors (S180 ascites; Dose 40 mg/kg, S180a in mice): 4/6 and 6/6
%ILS (S180 ascites; Dose 40 mg/kg, 40 mg/kg): 91% and 100%
%ILS (S180 ascites; Dose 40 mg/kg, listed as Cis-[Pt(NH₃)₂(py)Cl]Cl, 40 mg/kg): 100%
30-Day Survivors (S180 ascites; Dose 80 mg/kg, S180a in mice): 0/6 and 4/6
30-Day Survivors (S180 ascites; Dose 160 mg/kg, S180a in mice): 0/6
30-Day Survivors (S180 ascites; Dose 320 mg/kg, S180a in mice): 0/7
%ILS (S180 ascites; Dose 320 mg/kg): -94%

[Cl][Pt-2]([Cl])([Cl])[Cl].[K+].[K+] [K₂PtCl₄]
antitumor activity [1]: completely inactive

Cc1ccc(O)c[n+]1[Pt-2]([NH3+])([NH3+])[Cl].[Cl-] (stereo not drawn) [Example 7, Cis-chlorodiammine-6-methyl-3-hydroxypyridineplatinum(II) chloride]
30-Day Survivors (S180 ascites; Dose 20 mg/kg, S180a in mice): 0/6
%ILS (S180 ascites; Dose 20 mg/kg): 30%
30-Day Survivors (S180 ascites; Dose 40 mg/kg, S180a in mice): 2/6
%ILS (S180 ascites; Dose 40 mg/kg): 70%
30-Day Survivors (S180 ascites; Dose 80 mg/kg, S180a in mice): 4/6
%ILS (S180 ascites; Dose 80 mg/kg): 93%
30-Day Survivors (S180 ascites; Dose 160 mg/kg, S180a in mice): 3/6
%ILS (S180 ascites; Dose 160 mg/kg): 82%
30-Day Survivors (S180 ascites; Dose 320 mg/kg, S180a in mice): 0/6
%ILS (S180 ascites; Dose 320 mg/kg): -49%
30-Day Survivors (S180 ascites; Dose 640 mg/kg, S180a in mice): 0/6
%ILS (S180 ascites; Dose 640 mg/kg): -75%

N.N.Oc1ccccn1.[Cl-].[Cl][Pt+] [Example 2, Cis-Chlorodiammine-2-hydroxypyridineplatinum(II) Chloride]
30-Day Survivors (S180 ascites; Dose 5 mg/kg, S180a in mice): 0/6
%ILS (S180 ascites; Dose 5 mg/kg): 15%
30-Day Survivors (S180 ascites; Dose 10 mg/kg, S180a in mice): 0/6
%ILS (S180 ascites; Dose 10 mg/kg): 15%
30-Day Survivors (S180 ascites; Dose 20 mg/kg, S180a in mice): 0/6
%ILS (S180 ascites; Dose 20 mg/kg): 28%
30-Day Survivors (S180 ascites; Dose 40 mg/kg, S180a in mice): 4/6 and 2/6
%ILS (S180 ascites; Dose 40 mg/kg, 40 mg/kg): 95% and 78%
30-Day Survivors (S180 ascites; Dose 80 mg/kg, S180a in mice): 4/6 and 2/6
%ILS (S180 ascites; Dose 80 mg/kg, 80 mg/kg): 91% and 80%
30-Day Survivors (S180 ascites; Dose 160 mg/kg, S180a in mice): 3/6
%ILS (S180 ascites; Dose 160 mg/kg): 64%
30-Day Survivors (S180 ascites; Dose 320 mg/kg, S180a in mice): 0/6
%ILS (S180 ascites; Dose 320 mg/kg): -74%
30-Day Survivors (S180 ascites; Dose 640 mg/kg, S180a in mice): 0/6
%ILS (S180 ascites; Dose 640 mg/kg): -77%
30-Day Survivors (S180 ascites; Dose 1280 mg/kg, S180a in mice): 0/6
%ILS (S180 ascites; Dose 1280 mg/kg): -84%

[Cl-].[Cl][Pt-2]1([n+]2ccccc2)[NH2+]C2CCCCC2[NH2+]1 (centres unmarked) [Example 19, Chloro-1,2-diaminocyclohexanepyridineplatinum(II) chloride]
30-Day Survivors (S180 ascites; Dose 10 mg/kg, S180a in mice): 0/6
%ILS (S180 ascites; Dose 10 mg/kg): 6%
30-Day Survivors (S180 ascites; Dose 20 mg/kg, S180a in mice): 0/6
%ILS (S180 ascites; Dose 20 mg/kg): 8%
30-Day Survivors (S180 ascites; Dose 40 mg/kg, S180a in mice): 0/6
%ILS (S180 ascites; Dose 40 mg/kg): 6%
30-Day Survivors (S180 ascites; Dose 80 mg/kg, S180a in mice): 0/6
%ILS (S180 ascites; Dose 80 mg/kg): 15%
30-Day Survivors (S180 ascites; Dose 160 mg/kg, S180a in mice): 0/6
%ILS (S180 ascites; Dose 160 mg/kg): 25%
30-Day Survivors (S180 ascites; Dose 320 mg/kg, S180a in mice): 0/6
%ILS (S180 ascites; Dose 320 mg/kg): -94%

[Cl-].[NH3+][Pt-2]([NH3+])([Cl])[n+]1cccc(O)c1 (stereo not drawn) [Example 4, Cis-chlorodiammine-3-hydroxypyridineplatinum(II) Chloride]
30-Day Survivors (S180 ascites; Dose 10 mg/kg, S180a in mice): 0/6
%ILS (S180 ascites; Dose 10 mg/kg): 5%
30-Day Survivors (S180 ascites; Dose 20 mg/kg, S180a in mice): 0/6
%ILS (S180 ascites; Dose 20 mg/kg): 10%
30-Day Survivors (S180 ascites; Dose 40 mg/kg, S180a in mice): 0/6
%ILS (S180 ascites; Dose 40 mg/kg): 54%
30-Day Survivors (S180 ascites; Dose 80 mg/kg, S180a in mice): 1/6
%ILS (S180 ascites; Dose 80 mg/kg): 69%
30-Day Survivors (S180 ascites; Dose 160 mg/kg, S180a in mice): 1/6
%ILS (S180 ascites; Dose 160 mg/kg): -8%
30-Day Survivors (S180 ascites; Dose 320 mg/kg, S180a in mice): 0/6
%ILS (S180 ascites; Dose 320 mg/kg): -75%

N.N.Nc1cc[nH]c(=O)n1.[Cl-].[Cl][Pt+] [Example 6, Cis-chlorodiamminecytosineplatinum(II) chloride]
30-Day Survivors (S180 ascites; Dose 20 mg/kg, S180a in mice): 0/6
%ILS (S180 ascites; Dose 20 mg/kg): 23%
30-Day Survivors (S180 ascites; Dose 40 mg/kg, S180a in mice): 1/6
%ILS (S180 ascites; Dose 40 mg/kg): 58%
30-Day Survivors (S180 ascites; Dose 80 mg/kg, S180a in mice): 4/6
%ILS (S180 ascites; Dose 80 mg/kg): 92%
30-Day Survivors (S180 ascites; Dose 160 mg/kg, S180a in mice): 3/6
%ILS (S180 ascites; Dose 160 mg/kg): 68%
30-Day Survivors (S180 ascites; Dose 320 mg/kg, S180a in mice): 2/6
%ILS (S180 ascites; Dose 320 mg/kg): -16%
30-Day Survivors (S180 ascites; Dose 640 mg/kg, S180a in mice): 0/6
%ILS (S180 ascites; Dose 640 mg/kg): -74%
